{"source": "PubChem BioAssay AID1259409", "about": "(Chemical Carcinogenesis Research Information System (CCRIS), 2018)", "origin": "cited, not measured here", "tested_on": "rodent chemically induced tumor inhibition, incidence and multiplicity", "assay": "CCRIS tumor inhibitor studies"}
{"smiles": "O=C(O)[C@H](O)[C@@H](O)[C@H](O)[C@H](O)CO", "values": [{"measurement": "tumour outcome (control, treated, inhibition, significance)", "setting": "Carcinogen: 1,2-DIMETHYLHYDRAZINE DIHYDROCHLORIDE, 306-37-6, Dose [Inhibitor]: 0, 1% IN DIET FOR 8 MO BEGINNING 2 WK POST CARCINOGEN (STUDY DURATION: 8 MO, 2 WK), Route [Inhibitor]: ORAL, Species: RAT, Strain/Sex: F344/MALE, Target Tissue: Type of Lesion: COLON: TUMOR, Dose [Carcinogen]: 200 MG/KG IN 0.9% NACL ONCE", "value": "15/27 (56%), 17/28 (61%), -9%, not significant"}, {"measurement": "tumour outcome (control, treated, inhibition, significance)", "setting": "Carcinogen: 1,2-DIMETHYLHYDRAZINE DIHYDROCHLORIDE, 306-37-6, Dose [Inhibitor]: 0, 2% IN DIET FOR 8 MO BEGINNING 2 WK POST CARCINOGEN (STUDY DURATION: 8 MO, 2 WK), Route [Inhibitor]: ORAL, Species: RAT, Strain/Sex: F344/MALE, Target Tissue: Type of Lesion: COLON: TUMOR, Dose [Carcinogen]: 200 MG/KG IN 0.9% NACL ONCE", "value": "15/27 (56%), 7/17 (41%), 27%, not significant"}]}
{"smiles": "[O]=[V](=[O])[OH]", "values": [{"measurement": "tumour outcome (control, treated, inhibition, significance)", "setting": "Carcinogen: 7,12-DIMETHYLBENZ[A]ANTHRACENE (57-97-6), Dose [Inhibitor]: DRINKING WATER, Route [Inhibitor]: 4.27 µM/L DIRECTLY AFTER CARCINOGEN UNTIL 34 WKS, Species: RAT, Strain/Sex: SPRAGUE-DAWLEY/FEMALE, Target Tissue: Type of Lesion: MAMMARY: CARCINOMA, Dose [Carcinogen]: 0.5 MG/100 G BW AT 50 D OF AGE ONCE (STUDY DURATION: 35 WKS)", "value": "100%, 60%, 40%, p<0.05"}, {"measurement": "outcome", "setting": "Carcinogen: 7,12-Dimethylbenzanthracene, 57-97-6, Dose [Inhibitor]: 0.5 ppm in drinking water beginning immediately after carcinogen up to 35 wks study duration, Route [Inhibitor]: Oral, Species: Rat, Strain/Sex: Sprague-Dawley/Female, Target Tissue: Type of Lesion: Mammary gland: Adenocarcinoma, Dose [Carcinogen]: 0.5 mg/100 g bw iv once, study duration 35 wk, Promoter: None", "value": "9/10 (90%), 6/10 (60%), p<0.05"}, {"measurement": "outcome", "setting": "Carcinogen: INTRAVENOUS; Dose [Inhibitor]: 7,12-DIMETHYLBENZ[A]ANTHRACENE; 57-97-6; Route [Inhibitor]: 0; 0.5 PPM IN DRINKING WATER FOR 35 WK BEGINNING IMMEDIATELY POST CARCINOGEN TREATMENT, STUDY DURATION: 35 WK), Species: RAT, Strain/Sex: SPRAGUE-DAWLEY/FEMALE, Target Tissue: Type of Lesion: 9/10 (90%), 6/10 (60%), 33%, P<0.05", "value": "8.11, 5.33, 34%, p<0.01"}, {"measurement": "tumour outcome (control, treated, inhibition, significance)", "setting": "Carcinogen: N,N-Diethylnitrosamine;(55-18-5, Dose [Inhibitor]: 0.5 ppm as vanadium starting 4 wk prior to DEN and stopped at week 4, Route [Inhibitor]: Oral (drinking water), Species: Rats, Strain/Sex: Sprague-Dawley/Male, Target Tissue: Type of Lesion: Liver: Preneoplastic nodules, Dose [Carcinogen]: Single 200 mg/kg dose in 0.9% saline at wk 4 of experiment, Promoter: Phenobarbital", "value": "15/15 (100%), 4/12 (33.33%), 66.67%"}]}
{"smiles": "O=c1[nH]c(=O)c2[nH]cnc2[nH]1", "values": [{"measurement": "tumour outcome (control, treated, inhibition, significance)", "setting": "Carcinogen: URETHANE, 51-79-6, Dose [Inhibitor]: 0.05 UMOL/G BW GIVEN AT 6 HR INTERVALS FOR 36 HR AFTER CARCINOGEN TREATMENT (STUDY DURATION: 5 MO), Route [Inhibitor]: INTRAPERITONEAL, Species: MOUSE, Strain/Sex: ICR/FEMALE, Target Tissue: Type of Lesion: LUNG: PAPILLARY ADENOMA, Dose [Carcinogen]: 0.1 MG/G BW ONCE, Promoter: NONE USED", "value": "31/59 (53%), 26/40 (65%), -23%, not significant"}]}
{"smiles": "CC(C)[C@@H]1CC[C@@H](C)C[C@H]1O", "values": [{"measurement": "tumour outcome (control, treated, inhibition, significance)", "setting": "Carcinogen: AZOXYMETHANE, 25843-45-2, Dose [Inhibitor]: 0, 5 MG/G IN DIET FOR 22 WK BEGINNING 3 D POST LAST CARCINOGEN DOSE (STUDY DURATION: 25 WK), Route [Inhibitor]: ORAL, Species: RAT, Strain/Sex: F344/MALE, Target Tissue: Type of Lesion: DUODENUM: ADENOCARCINOMA, Dose [Carcinogen]: 15 MG/KG BW 2/WK FOR 3 WK, Promoter: NONE USED", "value": "50%, 42%, 16%, not significant"}, {"measurement": "tumour outcome (control, treated, inhibition, significance)", "setting": "Carcinogen: AZOXYMETHANE, 25843-45-2, Dose [Inhibitor]: 0, 5 MG/G IN DIET FOR 22 WK BEGINNING 3 D POST LAST CARCINOGEN DOSE (STUDY DURATION: 25 WK), Route [Inhibitor]: ORAL, Species: RAT, Strain/Sex: F344/MALE, Target Tissue: Type of Lesion: LARGE BOWEL: ADENOMATOUS POLYP, Dose [Carcinogen]: 15 MG/KG BW 2/WK FOR 3 WK, Promoter: NONE USED", "value": "82%, 88%, -7%, not significant"}]}
